This passage reports IC50 results from US8071768B2, “Alkylquinoline and alkylquinazoline kinase modulators” (Janssen Pharmaceutica, N.V., priority 2005, dated 2011).

T1 sequence (Q16620 32-822): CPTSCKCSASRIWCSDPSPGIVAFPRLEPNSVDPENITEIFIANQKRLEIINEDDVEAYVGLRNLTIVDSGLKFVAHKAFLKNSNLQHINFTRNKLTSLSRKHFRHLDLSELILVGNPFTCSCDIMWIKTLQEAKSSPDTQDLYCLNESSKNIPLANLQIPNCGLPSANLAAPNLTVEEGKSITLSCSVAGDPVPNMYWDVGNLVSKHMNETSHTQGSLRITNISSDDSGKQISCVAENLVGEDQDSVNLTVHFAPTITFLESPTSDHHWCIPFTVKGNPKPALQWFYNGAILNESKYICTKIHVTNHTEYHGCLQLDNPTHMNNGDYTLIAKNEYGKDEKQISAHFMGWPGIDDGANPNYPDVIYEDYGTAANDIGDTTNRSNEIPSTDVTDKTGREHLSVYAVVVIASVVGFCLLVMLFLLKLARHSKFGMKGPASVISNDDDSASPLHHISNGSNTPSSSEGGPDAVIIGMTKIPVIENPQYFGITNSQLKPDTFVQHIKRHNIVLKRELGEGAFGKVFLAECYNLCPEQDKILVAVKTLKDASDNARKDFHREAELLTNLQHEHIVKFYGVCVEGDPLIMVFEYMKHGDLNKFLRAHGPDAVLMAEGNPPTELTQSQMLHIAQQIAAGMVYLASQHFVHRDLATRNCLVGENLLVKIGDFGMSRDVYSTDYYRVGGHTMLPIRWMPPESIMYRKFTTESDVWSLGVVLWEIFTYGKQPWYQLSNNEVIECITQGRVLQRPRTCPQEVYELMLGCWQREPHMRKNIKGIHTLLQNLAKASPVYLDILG

The assay addresses T1, TrkB (Homo sapiens, UniProt Q16620).
T1 construct: purchased Upstate 14-507M
In words: Trk B Fluorescence Polarization Kinase Assay. Format: biochemical. Conditions: uncertainty ±10%. An outline of the steps:
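The TrkB kinase reaction (50 nM enzyme, 20 ug/mL poly Glu4Tyr, 150 uM ATP, 5 mM MgCl2, 1% DMSO) ran 30 minutes at room temperature and was stopped with EDTA. Phosphorylation was detected by fluorescence-polarization displacement of a fluorescein phosphopeptide from an anti-phosphotyrosine antibody. IC50 came from a variable-slope sigmoidal fit of triplicates.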
On the technique in general: Fluorescence polarisation rises when a labelled molecule tumbles more slowly, as on binding a larger partner.
One may read the IC50 as the concentration at which inhibition is half-maximal. High values mean weaker potency, low ones greater potency. As for `O=C(Nc1ccc(N2CCOCC2)cc1)N1CCC(c2ncnc3cc(OCCCN4CCC[C@H]4CO)ccc23)CC1` [Compound 119, (S)-4-{7-[3-(2-Hydroxymethyl-pyrrolidin-1-yl)-propoxy]-quinazolin-4-yl}-piperidine-1-carboxylic acid (4-morpholin-4-yl-phenyl)-amide], the half-maximal inhibitory concentration (IC50) was more than 20 µM.
The figure for `CN(C)C(=O)N1CCN(CCCOc2ccc3c(C4CCN(C(=O)Nc5ccc(N6CCOCC6)cc5)CC4)ncnc3c2)CC1` [Compound 120, 4-(3-{4-[1-(4-Morpholin-4-yl-phenylcarbamoyl)-piperidin-4-yl]-quinazolin-7-yloxy}-propyl)-piperazine-1-carboxylic acid dimethylamide] is 16.7 µM; for `CC(C)Oc1ccc(NC(=O)N2CCC(c3ncnc4cc(OCCCOS(C)(=O)=O)ccc34)CC2)cc1` [Compound 121, Methanesulfonic acid 3-{4-[1-(4-isopropoxy-phenylcarbamoyl)-piperidin-4-yl]-quinazolin-7-yloxy}-propyl ester] it is 0.13 µM.
The compound `CS(=O)(=O)OCCCOc1ccc2c(C3CCN(C(=O)Nc4ccc(N5CCOCC5)cc4)CC3)ncnc2c1` [Compound 122, Methanesulfonic acid 3-{4-[1-(4-morpholin-4-yl-phenylcarbamoyl)-piperidin-4-yl]-quinazolin-7-yloxy}-propyl ester] showed an IC50 of 18.9 µM.
The compound `O=C(Nc1ccc(N2CCOCC2)cc1)N1CCC(c2ncnc3cc(OCCCN4CCNCC4)ccc23)CC1` [Compound 123, 4-[7-(3-piperazin-1-yl-propoxy)-quinazolin-4-yl]-piperidine-1-carboxylic acid (4-morpholin-4-yl-phenyl)-amide] gave an IC50 of more than 20 µM.
The figure for `O=C(Nc1ccc(N2CCOCC2)cc1)N1CCC(c2ncnc3cc(OCCCN4CCCC4)ccc23)CC1` [Compound 124, 4-[7-(3-Pyrrolidin-1-yl-propoxy)-quinazolin-4-yl]-piperidine-1-carboxylic acid (4-morpholin-4-yl-phenyl)-amide] is more than 20 µM; for `CN1CCCN(CCCOc2ccc3c(C4CCN(C(=O)Nc5ccc(N6CCOCC6)cc5)CC4)ncnc3c2)CC1` [Compound 125, 4-{7-[3-(4-Methyl-[1,4]diazepan-1-yl)-propoxy]-quinazolin-4-yl}-piperidine-1-carboxylic acid (4-morpholin-4-yl-phenyl)-amide] it is more than 20 µM; for `O=C(Nc1ccc(N2CCOCC2)cc1)N1CCC(c2ncnc3cc(N4CC[C@@H](O)C4)ccc23)CC1` [Compound 126, (R)-4-[7-(3-Hydroxy-pyrrolidin-1-yl)-quinazolin-4-yl]-piperidine-1-carboxylic acid (4-morpholin-4-yl-phenyl)-amide] it is 10.2 µM.
Regarding `CN1CCC(Oc2ccc3c(C4CCN(C(=O)Nc5ccc(N6CCOCC6)cc5)CC4)ncnc3c2)CC1` [Compound 127, 4-[7-(1-Methyl-piperidin-4-yloxy)-quinazolin-4-yl]-piperidine-1-carboxylic acid (4-morpholin-4-yl-phenyl)-amide], the IC50 is 13.6 µM.
The compound `O=C(Nc1ccc(N2CCOCC2)cc1)N1CCC(c2ncnc3cc(N4CC[C@H](O)C4)ccc23)CC1` [Compound 128, 4-[7-(3-Hydroxy-pyrrolidin-1-yl)-quinazolin-4-yl]-piperidine-1-carboxylic acid (4-morpholin-4-yl-phenyl)-amide] returned an IC50 of more than 20 µM.
The figure for `O=C(Nc1ccc(N2CCCC2)cc1)N1CCC(c2ncnc3cc(N4CC[C@H](O)C4)ccc23)CC1` [Compound 129, (S)-4-[7-(3-Hydroxy-pyrrolidin-1-yl)-quinazolin-4-yl]-piperidine-1-carboxylic acid (4-pyrrolidin-1-yl-phenyl)-amide] is 3.11 µM; for `COC[C@H]1CCCN1c1ccc2c(C3CCN(C(=O)Nc4ccc(N5CCOCC5)cc4)CC3)ncnc2c1` [Compound 130, (R)-4-[7-(2-Methoxymethyl-pyrrolidin-1-yl)-quinazolin-4-yl]-piperidine-1-carboxylic acid (4-morpholin-4-yl-phenyl)-amide] it is more than 42 µM.
The figure for `CC(C)Oc1ccc(NC(=O)N2CCC(c3ncnc4ccc(N5CCN(C)CC5)cc34)CC2)cc1` [Compound 131, 4-[6-(4-Methyl-piperazin-1-yl)-quinazolin-4-yl]-piperidine-1-carboxylic acid (4-isopropoxy-phenyl)-amide] is 5.31 µM; for `O=C(Nc1ccc(N2CCOCC2)cc1)N1CCC(c2ncnc3cc(N4CCC[C@@H]4CO)ccc23)CC1` [Compound 132, (R)-4-[7-(2-Hydroxymethyl-pyrrolidin-1-yl)-quinazolin-4-yl]-piperidine-1-carboxylic acid (4-morpholin-4-yl-phenyl)-amide] it is more than 42 µM; for `O=C(Nc1ccc(N2CCOCC2)cc1)N1CCC(c2ncnc3cc(OCCCN4CCOCC4)ccc23)CC1` [Compound 133, 4-[7-(3-Morpholin-4-yl-propoxy)-quinazolin-4-yl]-piperidine-1-carboxylic acid (4-morpholin-4-yl-phenyl)-amide] it is more than 42 µM.
The figure for `CCN(CC)CCCOc1ccc2c(C3CCN(C(=O)Nc4ccc(N5CCOCC5)cc4)CC3)ncnc2c1` [Compound 134, 4-[7-(3-Diethylamino-propoxy)-quinazolin-4-yl]-piperidine-1-carboxylic acid (4-morpholin-4-yl-phenyl)-amide] is more than 42 µM.
On to `CN1CCN(c2ccc3c(C4CCN(C(=O)Nc5ccc(N6CCOCC6)cc5)CC4)ncnc3c2)CC1` [Compound 135, 4-[7-(4-Methyl-piperazin-1-yl)-quinazolin-4-yl]-piperidine-1-carboxylic acid (4-morpholin-4-yl-phenyl)-amide], for which the IC50 is more than 42 µM.
The result for `CCN1CCN(c2ccc3c(C4CCN(C(=O)Nc5ccc(N6CCOCC6)cc5)CC4)ncnc3c2)CC1` [Compound 136, 4-[7-(4-Ethyl-piperazin-1-yl)-quinazolin-4-yl]-piperidine-1-carboxylic acid (4-morpholin-4-yl-phenyl)-amide] reads more than 42 µM; that for `O=C(Nc1ccc(N2CCOCC2)cc1)N1CCC(c2ncnc3cc(N4CCN(CCO)CC4)ccc23)CC1` [Compound 137, 4-{7-[4-(2-Hydroxy-ethyl)-piperazin-1-yl]-quinazolin-4-yl}-piperidine-1-carboxylic acid (4-morpholin-4-yl-phenyl)-amide], more than 42 µM; that for `CN1CCCN(c2ccc3c(C4CCN(C(=O)Nc5ccc(N6CCOCC6)cc5)CC4)ncnc3c2)CC1` [Compound 138, 4-[7-(4-Methyl-[1,4]diazepan-1-yl)-quinazolin-4-yl]-piperidine-1-carboxylic acid (4-morpholin-4-yl-phenyl)-amide], more than 42 µM.
The figure for `O=C(Nc1ccc(N2CCOCC2)cc1)N1CCC(c2ncnc3cc(N4CCC[C@H]4CO)ccc23)CC1` [Compound 139, (S)-4-[7-(2-Hydroxymethyl-pyrrolidin-1-yl)-quinazolin-4-yl]-piperidine-1-carboxylic acid (4-morpholin-4-yl-phenyl)-amide] is 33.8 µM; for `O=C(Nc1ccc(N2CCOCC2)cc1)N1CCC(c2ncnc3cc(N4CCNCC4)ccc23)CC1` [Compound 140, 4-(7-piperazin-1-yl-quinazolin-4-yl)-piperidine-1-carboxylic acid (4-morpholin-4-yl-phenyl)-amide] it is more than 42 µM; for `CC(=O)N1CCN(c2ccc3c(C4CCN(C(=O)Nc5ccc(N6CCOCC6)cc5)CC4)ncnc3c2)CC1` [Compound 141, 4-[7-(4-Acetyl-piperazin-1-yl)-quinazolin-4-yl]-piperidine-1-carboxylic acid (4-morpholin-4-yl-phenyl)-amide] it is 15 µM.
The result for `CS(=O)(=O)N1CCN(c2ccc3c(C4CCN(C(=O)Nc5ccc(N6CCOCC6)cc5)CC4)ncnc3c2)CC1` [Compound 142, 4-[7-(4-Methanesulfonyl-piperazin-1-yl)-quinazolin-4-yl]-piperidine-1-carboxylic acid (4-morpholin-4-yl-phenyl)-amide] reads 17.4 µM.
With `CN(C)C(=O)N1CCN(c2ccc3c(C4CCN(C(=O)Nc5ccc(N6CCOCC6)cc5)CC4)ncnc3c2)CC1` [Compound 143, 4-{4-[1-(4-Morpholin-4-yl-phenylcarbamoyl)-piperidin-4-yl]-quinazolin-7-yl}-piperazine-1-carboxylic acid dimethylamide], the IC50 amounted to 7.6 µM.
The result for `CN(C)CC(=O)N1CCN(c2ccc3c(C4CCN(C(=O)Nc5ccc(N6CCOCC6)cc5)CC4)ncnc3c2)CC1` [Compound 144, 4-{7-[4-(2-Dimethylamino-acetyl)-piperazin-1-yl]-quinazolin-4-yl}-piperidine-1-carboxylic acid (4-morpholin-4-yl-phenyl)-amide] reads 14.2 µM.
The result for `O=C(Nc1ccc(N2CCOCC2)cc1)N1CCC(c2ncnc3cc(N4CCOCC4)ccc23)CC1` [Compound 145, 4-(7-Morpholin-4-yl-quinazolin-4-yl)-piperidine-1-carboxylic acid (4-morpholin-4-yl-phenyl)-amide] reads 21.1 µM; that for `CS(=O)(=O)CCNc1ccc2c(C3CCN(C(=O)Nc4ccc(N5CCOCC5)cc4)CC3)ncnc2c1` [Compound 146, 4-[7-(2-Methanesulfonyl-ethylamino)-quinazolin-4-yl]-piperidine-1-carboxylic acid (4-morpholin-4-yl-phenyl)-amide], more than 42 µM; that for `O=C(Nc1ccc(N2CCCC2)cc1)N1CCC(c2ncnc3cc(OCCN4CCOC4=O)ccc23)CC1` [Compound 147, 4-{7-[2-(2-Oxo-oxazolidin-3-yl)-ethoxy]-quinazolin-4-yl}-piperidine-1-carboxylic acid (4-pyrrolidin-1-yl-phenyl)-amide], 2.73 µM.
The result for `O=C(Nc1ccc(N2CCOCC2)cc1)N1CCC(c2ncnc3cc(OCCN4CCOC4=O)ccc23)CC1` [Compound 148, 4-{7-[2-(2-Oxo-oxazolidin-3-yl)-ethoxy]-quinazolin-4-yl}-piperidine-1-carboxylic acid (4-morpholin-4-yl-phenyl)-amide] reads 26.7 µM.
